Measurements published in patent US12370170B2, “Composition comprising naphthoquinone-based compound as active ingredient, for preventing or ameliorating fatigue, cachexia, pain, cognitive decline and hematopoietic stem cell reduction which are side effects related to anticancer drug treatment” (NADIANBIO LTD., priority 2016, dated 2025).

Experiments:
Format in all cases: in vivo, C57BL/6 mice
[1] = system: inflammatory cytokines TNF-α, IL-1β, IL-6 and IL-17; assay: Plasma inflammatory cytokines by ELISA in adriamycin animal model; conditions: adriamycin 4 mg/kg/day i.p. ×3; compound 20 mg/kg oral daily from 3 days before; 4 days after final adriamycin; vs adriamycin group
Description: (§1) In this invention, 11 weeks old C57BL/6 mice were used. All the mice used in the experiments of the invention were raised in an aseptic animal room at the temperature of 22˜26 L with the humidity of 55˜60%. The mice were allowed to take general solid feed (SAMTACO Co., Ltd., Korea) and water freely. The mice were adapted for 1 week before the experiment. All the experiments were performed after obtaining approval from the clinical trial management committee in accordance with the laboratory animal care and ethics regulations of Wonkwang University. The mouse animal model of the present invention was treated with different anticancer drugs. […]
Particularly, plasma was isolated from the adriamycin animal model prepared by the same manner as described in Example 4, and the inflammatory cytokines TNF-α (R&D Systems, MTA00B), IL-1β (R&D Systems, MLB00C), IL-6 (R&D Systems, M6000B) and IL-17 (R&D Systems, M1700) were analyzed by ELISA (enzyme-linked immunosorbent assay).
To investigate the regulatory effect of β-lapachone on adriamycin induced inflammatory cytokines, plasma was isolated from the adriamycin animal model prepared by the same manner as described in Example 4, and the inflammatory cytokines TNF-α, IL-1β, IL-6 and IL-17 were analyzed by ELISA.

orexin = assay: Orexin protein in hypothalamus by ELISA, 4×ACP animal model; conditions: β-lapachone 20 mg/kg oral daily from 3 days before, 2 days after ACP
Description: as §1, with “drugs. Particularly, one kind of anticancer drug was administered intraperitoneally one time or more, or several kinds of anticancer drugs were administered once or more times or at different concentrations, leading to the establishment of the animal model of the invention.” for “drugs.”
To analyze orexin protein in the 4×ACP animal model prepared by the same manner as described in Example 8, the hypothalamus of the mouse was extracted, followed by the preparation of a homogenate. Orexin (MyBioSource, MBS2505504) was analyzed by ELISA to investigate the regulatory effect of β-lapachone on orexin.

[2] = system: inflammatory cytokines TNF-α and IL-1β; assay: Brain inflammatory response: TNF-α and IL-1β in hypothalamus (RT-PCR, ELISA), 4×ACP animal model; conditions: β-lapachone 20 mg/kg oral, ELISA of homogenate
Description: In this invention, 11 weeks old C57BL/6 mice were used. All the mice used in the experiments of the invention were raised in an aseptic animal room at the temperature of 22˜26 L with the humidity of 55˜60%. The mice were allowed to take general solid feed (SAMTACO Co., Ltd., Korea) and water freely. The mice were adapted for 1 week before the experiment. All the experiments were performed after obtaining approval from the clinical trial management committee in accordance with the laboratory animal care and ethics regulations of Wonkwang University. The mouse animal model of the present invention was treated with different anticancer drugs. Particularly, one kind of anticancer drug was administered intraperitoneally one time or more, or several kinds of anticancer drugs were administered once or more times or at different concentrations, leading to the establishment of the animal model of the invention. In the adriamycin-induced animal model, the mice were divided into 6 groups as follows: the control group administered with PBS (Control, 5 mice), the group administered intraperitoneally with adriamycin (4 mg/kg/day) 3 times (ADR, 5 mice), the group administered orally with dunnione or β-lapachone from 3 days before the adriamycin treatment daily (20 mg/kg, 5 mice), and the group administered with dunnione or β-lapachone (20 mg/kg, 5 mice). 4 days after the final adriamycin treatment, analysis of the mice was performed.
The present inventors established an animal model co-treated with three different anticancer drugs in this experiment. The anticancer drugs used herein were adriamycin (ADR), cyclophosphamide (CYP) and paclitaxel (PTX), which were indicated as ACP. […]
A homogenate was prepared with the mouse hypothalamus extracted from the 4×ACP animal model prepared by the same manner as described in Example 8. Then, the expressions of the inflammatory cytokines TNF-α and IL-1β in the brain tissue were analyzed by ELISA.

Question: What does the source list for `CC1(C)CCC2=C(O1)c1ccccc1C(=O)C2=O` [β-lapachone, 3,4-Dihydro-2,2-dimethyl-2H-naphtho(1,2-b) pyran-5,6-dione]?
Answer: level of inflammatory cytokines (TNF-α, IL-1β, IL-6, IL-17) in plasma [1]: significantly reduced; orexin reduction in the hypothalamus (orexin): significantly restored; up-regulations of TNF-α and IL-1β in the hypothalamus [2]: significantly suppressed
